Reference: patent US10669235B2, “Indole derivatives and their use as protein kinase inhibitors” (RESPIVERT LIMITED, priority 2016, dated 2020)
Structures can show the parent of a compound that is named as a salt. Where two headings read alike, the source gives them in different places.

Tests used:
PAMPA permeability assay = format: in vitro ADME; settings: for recovery at 5 hr, 10 μM / Papp at 5 hr, 10 μM: pH 7, PAMPA; for Papp at 5 hr, 10 μM: pH 7, 10 μM
MRC5 cells = experiment: Cell viability assay in MRC5 cells (MTT)
PDGFRβ = PDGFRβ (Homo sapiens (Human), UniProt P09619); experiment: PDGF-BB induced phosphorylation of PDGFRβ in fibroblasts (MRC5, HTRF); format: cell-based; settings: MRC5 cells, PDGFBB stimulation; read-out: PDGFBB-induced PDGFRβ phosphorylation in MRC5 cells (IC50)
[1] = Pharmacokinetic measurements in rats (i.v., i.t., oral); format: in vivo; settings: rat; for concentration at 0.1 h / concentration at 1.5 h / concentration at 24 h: lung; for concentration at 0.1 h: read-out: lung concentration (nM) at time 0.1 h; for concentration at 1.5 h: read-out: lung concentration (nM) at time 1.5 h; for concentration at 24 h: read-out: lung concentration (nM) at time 24 h
[2] = male, CD, other: intra-tracheal
[3] = i.t. dose 0.1 (nintedanib 0.42)
[4] = i.v. dose 0.1 (nintedanib 0.42)

Chain of PDGFRβ (P09619 33-1106): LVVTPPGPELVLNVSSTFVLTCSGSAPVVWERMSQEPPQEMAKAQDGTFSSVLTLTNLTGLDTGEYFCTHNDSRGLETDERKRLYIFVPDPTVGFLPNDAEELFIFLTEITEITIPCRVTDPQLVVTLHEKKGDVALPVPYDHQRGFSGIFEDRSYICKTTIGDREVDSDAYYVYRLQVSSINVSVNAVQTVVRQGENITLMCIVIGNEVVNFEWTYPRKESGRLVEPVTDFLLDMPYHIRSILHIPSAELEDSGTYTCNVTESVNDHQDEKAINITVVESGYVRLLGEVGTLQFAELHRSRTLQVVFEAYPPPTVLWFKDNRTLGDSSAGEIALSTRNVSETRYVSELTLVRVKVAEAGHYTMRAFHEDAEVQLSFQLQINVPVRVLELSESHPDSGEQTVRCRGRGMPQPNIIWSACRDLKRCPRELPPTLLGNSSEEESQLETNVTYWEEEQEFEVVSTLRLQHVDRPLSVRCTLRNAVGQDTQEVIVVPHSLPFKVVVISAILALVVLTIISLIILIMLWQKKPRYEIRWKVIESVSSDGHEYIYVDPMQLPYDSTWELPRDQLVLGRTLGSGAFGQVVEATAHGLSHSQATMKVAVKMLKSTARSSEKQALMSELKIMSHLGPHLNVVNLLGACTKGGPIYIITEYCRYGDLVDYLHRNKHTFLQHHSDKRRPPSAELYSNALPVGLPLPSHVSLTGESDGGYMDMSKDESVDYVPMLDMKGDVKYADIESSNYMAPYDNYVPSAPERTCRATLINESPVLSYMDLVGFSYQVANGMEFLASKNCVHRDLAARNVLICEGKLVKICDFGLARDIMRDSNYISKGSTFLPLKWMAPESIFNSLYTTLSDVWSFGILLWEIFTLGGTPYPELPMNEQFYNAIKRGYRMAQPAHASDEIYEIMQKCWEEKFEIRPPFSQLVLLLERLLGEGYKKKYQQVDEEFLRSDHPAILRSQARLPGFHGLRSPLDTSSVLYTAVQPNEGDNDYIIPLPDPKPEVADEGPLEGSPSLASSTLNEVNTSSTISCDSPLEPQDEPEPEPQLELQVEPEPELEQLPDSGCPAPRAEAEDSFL

Compound | recovery at 5 hr, 10 μM (PAMPA permeability assay) | Cell viability at 100 nM (%) (MRC5 cells) | Cell viability at 300 nM (%) (MRC5 cells) | Cell viability at 1000 nM (%) (MRC5 cells) | IC50 (PDGFRβ) | further results
COC(=O)c1cc2c(cc1C)/C(=C(/Nc1ccc(S(=O)(=O)NCCN3CCN(C)CC3)cc1)c1ccccc1)C(=O)N2 [Example 1, (Z)-Methyl 5-methyl-3-(((4-(N-(2-(4-methylpiperazin-1-yl)ethyl)sulfamoyl)phenyl)amino)(phenyl)methylene)-2-oxoindoline-6-carboxylate, 0.8 formate] | 92% | 103.6% | 89% | 68.7% | 25.6 nM | Papp at 5 hr, 10 μM (PAMPA permeability assay): 0.123 ×10⁻⁶ cm/s
COC(=O)c1cc2c(cc1C)/C(=C(/Nc1ccc(C(=O)NCC(=O)N3CCN(C)CC3)cc1)c1ccccc1)C(=O)N2 [Example 8, (Z)-Methyl 5-methyl-3-(((4-((2-(4-methylpiperazin-1-yl)-2-oxoethyl)carbamoyl)phenyl)amino) (phenyl)methylene)-2-oxoindoline-6-carboxylate, 0.5 formate] | 87.8% | 110.4% | 108.2% | 77.7% | 12 nM | Papp at 5 hr, 10 μM (PAMPA permeability assay): 0.156 ×10⁻⁶ cm/s
COC(=O)c1cc2c(cc1C)/C(=C(/Nc1ccc(C(=O)NCCN3CCC(O)CC3)cc1)c1ccccc1)C(=O)N2 [Example 12, (Z)-Methyl 3-(((4-((2-(4-hydroxypiperidin-1-yl)ethyl)carbamoyl)phenyl)amino)(phenyl)methylene)-5-methyl-2-oxoindoline-6-carboxylate, 0.8 formate] | 87.7% | 92.2% | 105.5% | 93.4% | 4.23 nM | Papp at 5 hr, 10 μM (PAMPA permeability assay): 0.00638 ×10⁻⁶ cm/s
COC(=O)c1cc2c(cc1C)/C(=C(/Nc1ccc(C(=O)NCC3CCN(CCO)CC3)cc1)c1ccccc1)C(=O)N2 [Example 14, (Z)-Methyl 3-(((4-(((1-(2-hydroxyethyl)piperidin-4-yl)methyl)carbamoyl)phenyl)amino) (phenyl)methylene)-5-methyl-2-oxoindoline-6-carboxylate] |  | 116.2% | 107.9% | 61% |  | 
COC(=O)c1cc2c(cc1C)/C(=C(/Nc1ccc(C(=O)N3CCN(CC(=O)NCCO)CC3)cc1)c1ccccc1)C(=O)N2 [Example 15, (Z)-Methyl 3-(((4-(4-(2-((2-hydroxyethyl)amino)-2-oxoethyl)piperazine-1-carbonyl)phenyl)amino) (phenyl)methylene)-5-methyl-2-oxoindoline-6-carboxylate] |  | 91.3% | 109.9% | 85.6% |  | 
COC(=O)c1cc2c(cc1C)/C(=C(/Nc1ccc(C(=O)NC3CCN(CCO)CC3)cc1)c1ccccc1)C(=O)N2 [Example 49, (Z)-Methyl 3-(((4-((1-(2-hydroxyethyl)piperidin-4-yl)carbamoyl)phenyl)amino)(phenyl)methylene)-5-methyl-2-oxoindoline-6-carboxylate] |  |  |  |  | 1.25 nM | 
COC(=O)c1cc2c(cc1C)/C(=C(/Nc1ccc(C(=O)NCC3CCN(CCO)CC3)cc1)c1ccccc1)C(=O)N2 [Example 50, (Z)-Methyl 3-(((4-(((1-(2-hydroxyethyl)piperidin-4-yl)methyl)carbamoyl)phenyl)amino)(phenyl)methylene)-5-methyl-2-oxoindoline-6-carboxylate] |  | 116.2% | 107.9% | 61.0% |  | 
COC(=O)c1cc2c(cc1C)/C(=C(/Nc1ccc(C(=O)NCCN(C)CCO)cc1)c1ccccc1)C(=O)N2 [Example 51, (Z)-Methyl 3-(((4-((2-((2-hydroxyethyl)(methyl)amino)ethyl)carbamoyl)phenyl)amino)(phenyl)methylene)-5-methyl-2-oxoindoline-6-carboxylate] |  | 113% | 95.5% | 83.8% | 6.71 nM | 
COC(=O)c1cc2c(cc1C)/C(=C(/Nc1ccc(C(=O)NCCN3CCS(=O)(=O)CC3)cc1)c1ccccc1)C(=O)N2 [Example 52, (Z)-Methyl 3-(((4-((2-(1,1-dioxidothiomorpholino)ethyl)carbamoyl)phenyl)amino)(phenyl)methylene)-5-methyl-2-oxoindoline-6-carboxylate] |  | 81.3% | 81.2% | 85.9% | 5.49 nM | 
COC(=O)c1cc2c(cc1C)/C(=C(/Nc1ccc(C(=O)NCCN3CCNC(=O)CC3)cc1)c1ccccc1)C(=O)N2 [Example 53, (Z)-Methyl 5-methyl-2-oxo-3-(((4-((2-(5-oxo-1,4-diazepan-1-yl)ethyl)carbamoyl)phenyl)amino)(phenyl)methylene)indoline-6-carboxylate] |  | 89.1% | 92.9% | 95.3% | 6.5 nM | 
COC(=O)c1ccc2c(c1)NC(=O)/C2=C(\Nc1ccc(N(C)C(=O)CN2CCN(C)CC2)cc1)c1ccccc1 [Nintedanib, reference compound] | 83.5% | 104.6% | 105.6% | 92.7% |  | % Recovery (PAMPA permeability assay): 64.0%; concentration at 0.1 h ([1]; male, CD, iv): 2300 nM; concentration at 1.5 h ([1]; male, CD, iv): 1390 nM; concentration at 24 h ([1]; male, CD, iv): 66 nM; concentration at 0.1 h [1, 2]: 12400 nM; concentration at 1.5 h [1, 2]: 7700 nM; concentration at 24 h [1, 2]: 152 nM; MRT ([1]; male, CD, plasma, iv): 3.8 h; clearance ([1]; male, CD, plasma, iv): 124 mL/min/kg; half-life ([1]; male, CD, plasma, iv): 3.9 h; Vd ([1]; male, CD, plasma, iv, read-out: Vss): 28 L/kg; i.t. BAV (%) [1, 3]: 43%; BAL % administered dose at time 0.1 h [1, 3]: 2%; BAL % administered dose at time 1.5 h [1, 3]: 1%; BAL % administered dose at time 24 h [1, 3]: 0.1%; BAL % administered dose at time 0.1 h [1, 4]: 0.06%; BAL % administered dose at time 1.5 h [1, 4]: 0.03%; BAL % administered dose at time 24 h [1, 4]: BQL
